Measured values reported in PMC7191905, “Synthesis and biological evaluation of new 3(2H)-pyridazinone derivatives as non-toxic anti-proliferative compounds against human colon carcinoma HCT116 cells” (Journal of Enzyme Inhibition and Medicinal Chemistry, 2020).
Values after ≈ are worked out from the molar mass of the structure shown. Values joined by “and” are separate entries in the source; they are usually repeats but may differ in a detail not shown here. Identical values can stand only once. Like-named read-outs stand apart in the source and are kept apart here.

How the values were obtained:
[1] = test system: kynurenic acid (KA) release from colon cancer HCT116 cells; test: Extracellular kynurenic acid (KA) level of 5-HT-stimulated HCT116 cells (HPLC-fluorimetric); assay type: cell-based, human; details: for Effect on 5-HT-induced KA depletion: compounds 10 µg/mL, 5-HT 1 ng/mL, vs 5-HT group
Description: (§1) HCT116 cell line (ATCC® CCL-247™) was cultured in DMEM (Euroclone) supplemented with 10% (v/v) heat-inactivated foetal bovine serum and 1.2% (v/v) penicillin G/streptomycin in 75 cm^2 tissue culture flask (n=5 individual culture flasks for each condition) as previously reported with or without serotonin treatment.
(§2) In the same condition, the kynurenic acid (KA) extracellular level was determined through a validated high performance liquid chromatography (HPLC)-fluorimetric method. To assess the cytotoxicity of synthesised compounds (VIa–o), a viability assay was performed on 96 microwell plates, using 3-(4,5-dimethylthiazol-2-yl)-2,5-diphenyltetrazolium bromide (MTT) test. Cells were incubated with compounds (10 µg/mL) for 24 h. An aliquot of 10 µL of MTT (5 mg/mL) was added to each well and incubated for 3 h. The viability of HCT116 cell line was evaluated both in basal conditions and after challenging with serotonin (5-HT) at 1 ng/mL. The anti-proliferative effects were compared to that induced by daunorubicin (0.1–20 µg/mL), used as reference drug.
Furthermore, compounds were assayed for evaluating modulatory effects on the extracellular level of KA, one of the two main kynurenine metabolites. Kynurenic acid was reported to be produced in multiple tissues, including brain and peripheral organs, although pharmacokinetic studies excluded any possibility of the peripheral pool to cross blood-brain barrier. In the brain, the kynurenine-derived kynurenic acid was described as a reliable marker of neuroprotection[28]^,[29], whereas it seems to be involved in inflammatory response at the peripheral level. Kynurenic acid was also described as an anti-proliferative factor towards colon, renal, and glioma cells. Specifically, this marker was considered as a potential chemopreventive agent against colon cancer[32]^,[33]. […] They were able in potentiating 5-HT-induced KA depletion, as well.

HCT116 cells [2] = test: MTT viability of HCT116 cells in basal conditions; assay type: cell-based, human; details: for IC50: Homo sapiens
Description: as §1, §2
Considering the effects induced by all compounds on HCT116 viability and KA production, compounds VIc, VIe and VIk were further assayed in order to deepen our knowledge about their anti-proliferative effects, in basal conditions. Specifically, HCT116 cells were stimulated with the aforementioned compounds, in a wider concentration range (0.1–20 µg/mL), with respect to the initial test. Additionally, the anti-proliferative effects induced by these compounds were compared with that of daunorubicin, used as anti-tumoral reference drug in the same concentration range.

HCT116 cells [3] = test: Wound healing paradigm (spontaneous migration of HCT116 cells); assay type: cell-based, human; details: compounds at their IC50 (VIe 3.09 µg/mL, VIk 2.73 µg/mL), 48 h after lesion of cell monolayer
Description: The detailed protocol related to wound healing experimental model was described in our previous article.
Finally, considering their potencies in reducing HCT116 cell viability, compounds VIe and VIk were further studied in order to evaluate their effects on the spontaneous migration of HCT116 cells, through the wound healing paradigm. In this experiment, HCT116 cells were treated with compounds VIe and VIk at their respective IC50 values. The spontaneous migration of HCT116 cells was monitored in the 48 h following the experimental lesion of cell monolayer. The null effects on sponstaneous migration (Figure 6) rule out any involvement of the tested compounds in altering the invasion capacity of human colon cancer cells.

[4] = HCT-116, basal conditions, concentration range 0.1–20 µg/mL, MTT test, read-out: IC50 (HCT116 cell viability)

Row | SMILES | melting point | other results
1 | COc1ccc(-c2ccc(=O)n(CC(=O)NN=Cc3ccc(O)cc3)n2)cc1F [VIn, N’-(4-hydroxybenzylidene)-2–(3-(3-fluoro-4-methoxyphenyl)-6-oxopyridazin-1(6H)-yl)acetohydrazide] | 251 °C | 
2 | COc1cccc2c1C(=O)c1c(O)c3c(c(O)c1C2=O)C[C@@](O)(C(C)=O)C[C@@H]3O[C@H]1C[C@H](N)[C@H](O)[C@H](C)O1 [daunorubicin, reference compound] |  | IC50 (HCT116 cells [2]; HCT-116, read-out: IC50 (HCT116 cell viability)): 1.39 µg/mL (≈ 2.63 µM)
3 | COc1ccc(-c2ccc(=O)n(CC(=O)NN=Cc3ccccc3OC)n2)cc1F [VIf, N’-(2-methoxybenzylidene)-2–(3-(3-fluoro-4-methoxyphenyl)-6-oxopyridazin-1(6H)-yl)acetohydrazide] | 214 °C | 
4 | COc1ccc(-c2ccc(=O)n(CC(=O)NN=Cc3ccc(Br)cc3)n2)cc1F [VIm, N’-(4-bromobenzylidene)-2–(3-(3-fluoro-4-methoxyphenyl)-6-oxopyridazin-1(6H)-yl)acetohydrazide] | 256 °C | 
5 | COc1ccc(-c2ccc(=O)n(CC(=O)NN=Cc3ccc([N+](=O)[O-])cc3)n2)cc1F [VIi, N’-(4-nitrobenzylidene)-2–(3-(3-fluoro-4-methoxyphenyl)-6-oxopyridazin-1(6H)-yl)acetohydrazide] | 265 °C | 
6 | NCCc1c[nH]c2ccc(O)cc12 [Compound 5-HT, serotonin, reference compound] |  | Effect of 5-HT on HCT116 cell viability (HCT116 cells [2]; 5-HT 10 pg/mL – 1 µg/mL, MTT test): increased in a concentration-dependent manner
7 | COc1ccc(C=NNC(=O)Cn2nc(-c3ccc(OC)c(F)c3)ccc2=O)cc1 [VIh, N’-(4-methoxybenzylidene)-2–(3-(3-fluoro-4-methoxyphenyl)-6-oxopyridazin-1(6H)-yl)acetohydrazide] | 207 °C | 
8 | COc1ccc(-c2ccc(=O)n(CC(=O)NN=Cc3ccc(Cl)cc3Cl)n2)cc1F [VIo, N’-(2,4-dichlorobenzylidene)-2–(3-(3-fluoro-4-methoxyphenyl)-6-oxopyridazin-1(6H)-yl)acetohydrazide] | 229 °C | 
9 | COc1ccc(-c2ccc(=O)n(CC(=O)NN=Cc3ccc(C(C)C)cc3)n2)cc1F [VIj, N’-(4-isopropylbenzylidene)-2–(3-(3-fluoro-4-methoxyphenyl)-6-oxopyridazin-1(6H)-yl)acetohydrazide] | 164 °C | 
10 | COc1ccc(-c2ccc(=O)n(CC(=O)NN=Cc3ccc(C(F)(F)F)cc3)n2)cc1F [VIc, N’-(4-trifluoromethylbenzylidene)-2–(3-(3-fluoro-4-methoxyphenyl)-6-oxopyridazin-1(6H)-yl)acetohydrazide] | 252 °C | IC50 (HCT116 cells [2]; [4]): 15 µg/mL (≈ 33.5 µM); IC50 fold higher compared to daunorubicin (HCT116 cells [2]; basal conditions, HCT116 viability): at least 10 fold; KA level compared to basal condition (CTR group) ([1]; compound 10 µg/mL, 5-HT-stimulated HCT116 cells): even higher compared to basal condition; Effect on 5-HT-induced KA depletion [1]: able to blunt 5-HT-induced KA depletion

Second part, led by results:

Row | melting point | SMILES | other results
11 | 132 °C | COc1ccc(-c2ccc(=O)n(CC(=O)NN=Cc3ccccc3)n2)cc1F [VIa, N’-benzylidene-2-(3-(3-fluoro-4-methoxyphenyl)-6-oxopyridazin-1(6H)-yl)acetohydrazide] | Effect on 5-HT-induced KA depletion [1]: failed to prevent the inhibition of KA level
12 | 210 °C | COc1ccc(-c2ccc(=O)n(CC(=O)NN=Cc3ccccc3C)n2)cc1F [VIe, N’-(2-methylbenzylidene)-2–(3-(3-fluoro-4-methoxyphenyl)-6-oxopyridazin-1(6H)-yl)acetohydrazide] | Effect on spontaneous migration of HCT116 cells (HCT116 cells [3]): null effects; IC50 (HCT116 cells [2]; [4]): 3.09 µg/mL (≈ 7.83 µM)
13 | 220 °C | COc1ccc(-c2ccc(=O)n(CC(=O)NN=Cc3ccc(C)cc3)n2)cc1F [VIg, N’-(4-methylbenzylidene)-2–(3-(3-fluoro-4-methoxyphenyl)-6-oxopyridazin-1(6H)-yl)acetohydrazide] | 
14 | 189 °C | COc1ccc(-c2ccc(=O)n(CC(=O)NN=Cc3ccccc3Br)n2)cc1F [VIk, N’-(2-bromobenzylidene)-2–(3-(3-fluoro-4-methoxyphenyl)-6-oxopyridazin-1(6H)-yl)acetohydrazide] | Effect on spontaneous migration of HCT116 cells (HCT116 cells [3]): null effects; IC50 (HCT116 cells [2]; [4]): 2.73 µg/mL (≈ 5.94 µM)
15 | 238 °C | COc1ccc(-c2ccc(=O)n(CC(=O)NN=Cc3ccc(F)cc3)n2)cc1F [VIb, N’-(4-fluorobenzylidene)-2–(3-(3-fluoro-4-methoxyphenyl)-6-oxopyridazin-1(6H)-yl)acetohydrazide] | Effect on 5-HT-induced KA depletion [1]: failed to prevent the inhibition of KA level
16 | 222 °C and 224 °C | COc1ccc(-c2ccc(=O)n(CC(=O)NN=Cc3ccccc3F)n2)cc1F [VId, N’-(2-fluorobenzylidene)-2–(3-(3-fluoro-4-methoxyphenyl)-6-oxopyridazin-1(6H)-yl)acetohydrazide] | 
